Experimental data taken from patent US7534785B2, “3,6-dihydro-2-oxo-6H-1,3,4,-thiadiazine derivatives” (Merck Patent Gesellschaft, priority 2005, dated 2009).

These molecules were tested against T1, Met kinase (Homo sapiens, UniProt P08581) (assay: Met kinase inhibition, flashplate method). Details: 1 μM ATP, substrate pAGLT, 3 hrs at room temperature, read-out: IC50 (enzyme).
T1 construct: 6His (N); purchased Upstate 14-526; host or cells: Sf21 insect cells (S. frugiperda), baculovirus
Type: biochemical
Text: According to the manufacturer's data (Met, active, upstate, catalogue No. 14-526), Met kinase is expressed for the purposes of protein production in insect cells (Sf21; S. frugiperda) and subsequent affinity-chromatographic purification as “N-terminal 6His-tagged” recombinant human protein in a baculovirus expression vector.
The test plates used are 96-well Flashplate® microtitre plates from Perkin Elmer (Cat. No. SMP200). The components of the kinase reaction described below are pipetted into the assay plate. The Met kinase and the substrate poly Ala-Glu-Lys-Tyr, (pAGLT, 6:2:5:1), are incubated for 3 hrs at room temperature with radioactively labelled ^33P-ATP in the presence and absence of test substances in a total volume of 100 μl. The reaction is terminated using 150 μl of a 60 mM EDTA solution. After incubation for a further 30 min at room temperature, the supernatants are filtered off with suction, and the wells are washed three times with 200 μl of 0.9% NaCl solution each time. The measurement of the bound radioactivity is carried out by means of a scintillation measuring instrument (Topcount NXT, Perkin-Elmer).
The full value used is the inhibitor-free kinase reaction. This should be approximately in the range 6000-9000 cpm. The pharmacological zero value used is staurosporin in a final concentration of 0.1 mM. The inhibitory values (IC50) are determined using the RS1_MTS program.
Kinase Reaction Conditions per Well: • 30 μl of assay buffer • 10 μl of substance to be tested in assay buffer with 10% of DMSO • 10 μl of ATP (final concentration 1 μM cold, 0.35 μCi of ^33P-ATP) • 50 μl of Met kinase/substrate mixture in assay buffer; • (10 ng of enzyme/well, 50 ng of pAGLT/well)
Solutions Used: • Assay Buffer: • 50 mM HEPES • 3 mM magnesium chloride • 3 μM sodium orthovanadate • 3 mM manganese(II) chloride • 1 mM dithiothreitol (DTT) • pH=7.5 (to be set using sodium hydroxide) • Stop Solution: • 60 mM Titriplex III (EDTA) • ^33P-ATP: Perkin-Elmer; • Met kinase: Upstate, Cat. No. 14-526, Stock 1 μg/10 μl; spec. activity 954 U/mg; • Poly-Ala-Glu-Lys-Tyr, 6:2:5:1:Sigma Cat. No. P1152

T1 sequence (P08581 25-1390): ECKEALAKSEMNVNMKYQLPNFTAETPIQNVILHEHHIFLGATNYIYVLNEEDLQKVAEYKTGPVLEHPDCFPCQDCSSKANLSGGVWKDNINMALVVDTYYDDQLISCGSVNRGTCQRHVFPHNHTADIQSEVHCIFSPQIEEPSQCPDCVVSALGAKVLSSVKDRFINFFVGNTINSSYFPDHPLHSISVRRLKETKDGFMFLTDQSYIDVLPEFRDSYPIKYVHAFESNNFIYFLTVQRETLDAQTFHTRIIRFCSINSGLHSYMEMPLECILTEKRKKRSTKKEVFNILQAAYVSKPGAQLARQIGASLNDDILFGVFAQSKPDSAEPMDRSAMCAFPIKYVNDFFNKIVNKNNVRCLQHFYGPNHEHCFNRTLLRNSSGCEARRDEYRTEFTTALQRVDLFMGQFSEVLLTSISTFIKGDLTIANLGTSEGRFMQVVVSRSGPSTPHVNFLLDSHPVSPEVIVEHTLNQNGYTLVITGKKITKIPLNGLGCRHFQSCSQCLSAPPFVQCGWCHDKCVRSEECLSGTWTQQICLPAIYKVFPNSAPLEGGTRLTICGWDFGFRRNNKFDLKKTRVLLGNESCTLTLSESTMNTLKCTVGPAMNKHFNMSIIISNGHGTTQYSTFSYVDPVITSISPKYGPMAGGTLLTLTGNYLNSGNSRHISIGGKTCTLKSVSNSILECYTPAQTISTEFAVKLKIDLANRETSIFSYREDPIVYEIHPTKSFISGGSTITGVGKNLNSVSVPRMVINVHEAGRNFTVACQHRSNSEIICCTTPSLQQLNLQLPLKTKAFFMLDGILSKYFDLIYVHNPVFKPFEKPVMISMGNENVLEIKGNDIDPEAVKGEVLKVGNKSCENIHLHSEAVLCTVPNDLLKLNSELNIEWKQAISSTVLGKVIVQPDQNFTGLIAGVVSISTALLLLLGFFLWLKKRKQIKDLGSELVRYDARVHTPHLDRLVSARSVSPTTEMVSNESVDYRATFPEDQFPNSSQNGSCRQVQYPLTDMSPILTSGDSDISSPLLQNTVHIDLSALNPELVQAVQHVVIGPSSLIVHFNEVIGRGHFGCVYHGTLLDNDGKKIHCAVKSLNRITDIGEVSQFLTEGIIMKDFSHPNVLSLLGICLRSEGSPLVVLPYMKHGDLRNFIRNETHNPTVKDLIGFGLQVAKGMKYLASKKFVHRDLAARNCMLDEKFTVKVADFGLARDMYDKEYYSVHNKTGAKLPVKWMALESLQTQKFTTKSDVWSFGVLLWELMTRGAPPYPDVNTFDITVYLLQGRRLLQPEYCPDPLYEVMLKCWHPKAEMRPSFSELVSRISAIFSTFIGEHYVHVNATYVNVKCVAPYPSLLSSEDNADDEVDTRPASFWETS

IC50, 10 to 1000 nM:
CN1CCC(CNC(=O)Nc2cccc(CN3N=C(c4ccc(Cl)cc4)CSC3=O)c2)C1 (centres unmarked) [Compound A1, 1-{3-[5-(4-chlorophenyl)-2-oxo-6H-1,3,4-thiadiazin-3-ylmethyl]phenyl}-3-(1-methylpyrrolidin-3-ylmethyl)urea]
CCNC(=O)Nc1cccc(CN2N=C(c3cc(Cl)ccc3O)CSC2=O)c1 [Compound A2]
CCN(CC)CCCNC(=O)Nc1cccc(CN2N=C(c3ccc(Cl)cc3)CSC2=O)c1 [Compound A3]
C[C@H](O)CNC(=O)Nc1cccc(CN2N=C(c3ccc(Cl)cc3)CSC2=O)c1 [Compound A4]
O=C(NCCO)Nc1cccc(CN2N=C(c3ccc(Cl)cc3)CSC2=O)c1 [Compound A5]
CCOC(=O)C(=O)Nc1cccc(CN2N=C(c3ccc(Cl)cc3)CSC2=O)c1 [Compound A9, ethyl N-{3-[5-(4-chlorophenyl)-2-oxo-6H-1,3,4-thiadiazin-3-ylmethyl]phenyl}oxalaminate]
CNCCNC(=O)Nc1cccc(CN2N=C(c3ccc(C#N)cc3)CSC2=O)c1 [Compound A10]
CN(C)C(=O)Nc1cccc(CN2N=C(c3cc(Cl)ccc3O)CSC2=O)c1 [Compound A12]
